Assay [1] has as its system Mus musculus. As to the kind of experiment: Effect on gross behavioral activity in Swiss albino mouse assessed as spontaneous motor activity at 5 mg/kg, ip after 45 mins using smoked drum. Also noted: dose 5 mg/kg. The format is functional, organism-based.
The subject of assay [2] is Mus musculus. Briefly: Effect on gross behavioral activity in Swiss albino mouse assessed as ptosis at 200 mg/kg, ip using smoked drum. Also noted: dose 200 mg/kg. In kind it is functional, organism-based.
Assay [3] relates to Canis familiaris. As to the kind of experiment: Increase in intestinal movement in anesthetized Mongrel dog at 25 mg/kg, iv. The format is functional, organism-based. Also noted: dose 25 mg/kg. The following applies: Canis lupus familiaris.
The subject of assay [4] is Canis familiaris. As to the kind of experiment: Increase in carotid blood pressure in anesthetized Mongrel dog at 25 mg/kg, iv. In kind it is functional, organism-based. Also noted: dose 25 mg/kg. The following applies: Canis lupus familiaris.
Assay [5] deals with Canis familiaris. Briefly: Increase in carotid blood pressure in anesthetized Mongrel dog at 25 mg/kg, iv in presence of Priscol. The following applies: Canis lupus familiaris. Also noted: dose 25 mg/kg. The format is functional, organism-based.
Assay [6] deals with Mus musculus. As to the kind of experiment: Effect on gross behavioral activity in Swiss albino mouse assessed as spontaneous motor activity at 200 mg/kg, ip after 45 mins using smoked drum. In kind it is functional, organism-based. Also noted: dose 200 mg/kg.
Assay [7] has as its system Mus musculus. As to the kind of experiment: Effect on gross behavioral activity in Swiss albino mouse assessed as CNS depression at 100 mg/kg, ip using smoked drum. In kind it is functional, organism-based. Conditions: Central nervous system. Also noted: dose 100 mg/kg.
Assay [8] deals with Mus musculus. As to the kind of experiment: Effect on gross behavioral activity in Swiss albino mouse assessed as sedation at 200 mg/kg, ip using smoked drum. In kind it is functional, organism-based. Also noted: dose 200 mg/kg.
For assay [9], the system named is Mus musculus. Briefly: Effect on gross behavioral activity in Swiss albino mouse assessed as decrease in motor activity at 200 mg/kg, ip using smoked drum. The format is functional, organism-based. Also noted: dose 200 mg/kg.
For assay [10], the system named is Canis familiaris. Briefly: Increase in carotid blood pressure in anesthetized Mongrel dog at 25 mg/kg, iv in presence of adrenaline. The format is functional, organism-based. Also noted: dose 25 mg/kg. Conditions: Canis lupus familiaris.
Assay [11] relates to Mus musculus. Briefly: Effect on gross behavioral activity in Swiss albino mouse assessed as ptosis at 100 mg/kg, ip using smoked drum. The format is functional, organism-based. Also noted: dose 100 mg/kg.
The subject of assay [12] is Mus musculus. Briefly: Effect on gross behavioral activity in Swiss albino mouse assessed as decrease in motor activity at 100 mg/kg, ip using smoked drum. The format is functional, organism-based. Also noted: dose 100 mg/kg.
Assay [13] deals with Canis familiaris. Briefly: Increase in respiration in anesthetized Mongrel dog at 25 mg/kg, iv. Also noted: dose 25 mg/kg. The following applies: Canis lupus familiaris. The format is functional, organism-based.
The test system of assay [14] is Mus musculus. Briefly: Effect on gross behavioral activity in Swiss albino mouse assessed as CNS depression at 200 mg/kg, ip using smoked drum. The format is functional, organism-based. Also noted: dose 200 mg/kg. The following applies: Central nervous system.
The subject of the next assay is Rattus norvegicus. As to the kind of experiment: Increase in pentobarbital-induced sleeping time in Wistar albino rat administered 30 mins before pentobarbital challenge relative to control. The format is functional.
Assay [15] relates to Mus musculus. As to the kind of experiment: Effect on gross behavioral activity in Swiss albino mouse assessed as CNS depression at 300 mg/kg, ip using smoked drum. The format is functional, organism-based. Also noted: dose 300 mg/kg. Conditions: Central nervous system.
Assay [16] relates to Mus musculus. Briefly: Effect on gross behavioral activity in Swiss albino mouse assessed as sedation at 100 mg/kg, ip using smoked drum. In kind it is functional, organism-based. Also noted: dose 100 mg/kg.

Activity calls are given as the source filed them. No cut-off for these calls is given here.

With `C[C@H](N)Cc1ccccc1`, the result in the assay on Mus musculus [1] was Active.

In the case of `CN(C)CCCN1c2ccccc2Sc2ccc(Cl)cc21`, in the assay on Mus musculus [1], the result was Active.

Consider `COc1c(O[C@@H]2O[C@H](CO)[C@@H](O)[C@H](O)[C@H]2O)cc2oc3cc(O[C@@H]4O[C@H](CO)[C@@H](O)[C@H](O)[C@H]4O)c(CC=C(C)C)c(O)c3c(=O)c2c1CC=C(C)C`, for which the outcome in the assay on Mus musculus [1], in the assay with Mus musculus [2], in the assay on Canis familiaris [3], in the assay with Canis familiaris [4], in the assay with Canis familiaris [5] and in the assay on Mus musculus [6] was Active. The result in the assay on Mus musculus [7], in the assay on Mus musculus [8], with Mus musculus [9], in the assay with Canis familiaris [10], in the assay with Mus musculus [11] and with Mus musculus [12] was Active. Besides, the result in the assay with Canis familiaris [13], in the assay with Mus musculus [14], with Mus musculus [15] and in the assay on Mus musculus [16] was Active. In the assay with Rattus norvegicus, this molecule yielded an Activity of 53.81%.
